Test results reported in ChEMBL document CHEMBL1221184, “Identifying off-target effects and hidden phenotypes of drugs in human cells” (Nat Chem Biol, 2006).
The source made the active and inactive calls. The calls are words filed in the database; no cut-off is given here. Non-standard residues stand in square brackets, D forms with d. Residues, ends and D or L forms follow the SMILES beside them. *: point of attachment. Nle = CCCC[C@H](N)C(=O)O; Cbz = O=C(OCc1ccccc1)*

Tests used:
[1] = tested on: PC-3; test: Antiproliferative activity against human PC3 cells at 300 nM after 120 hrs by MTT assay relative to DMSO; format: functional
[2] = tested on: HEK293; test: Inhibition of proteasome expressed in HEK293 cells assessed as effect on Pin1-Jun interaction complexes by EYFP and/or YFP Venus fragment based reporter gene assay
[3] = tested on: HEK293; test: Inhibition of proteasome expressed in HEK293 cells assessed as effect on CyclinD1-CDK4 interaction complexes by EYFP and/or YFP Venus fragment based reporter gene assay
[4] = tested on: HEK293; test: Inhibition of proteasome expressed in HEK293 cells assessed as effect on E6:E6AP interaction complexes by EYFP and/or YFP Venus fragment based reporter gene assay
[5] = tested on: PC-3; test: Antiproliferative activity against human PC3 cells at 25 uM after 120 hrs by MTT assay relative to DMSO; format: functional
[6] = tested on: HEK293; test: Inhibition of proteasome expressed in HEK293 cells assessed as effect on p53-Chk1 interaction complexes by EYFP and/or YFP Venus fragment based reporter gene assay
[7] = biological target: Cofilin-1 (Homo sapiens) (UniProt P23528); test: Effect on cofilin1 expressed in HEK293 cells assessed as effect on cofilin1; Limk2 interaction complexes by EYFP and/or YFP Venus fragment based reporter gene assay; format: cell-based
[8] = tested on: HEK293; test: Inhibition of proteasome expressed in HEK293 cells assessed as effect on p53-p53 interaction complexes by EYFP and/or YFP Venus fragment based reporter gene assay
[9] = tested on: PC-3; test: Antiproliferative activity against human PC3 cells at 15 uM after 120 hrs by MTT assay relative to DMSO; format: functional
[10] = tested on: PC-3; test: Antiproliferative activity against human PC3 cells at 10 ng/ml after 120 hrs by MTT assay relative to DMSO; format: functional
[11] = tested on: PC-3; test: Antiproliferative activity against human PC3 cells at 1.5 uM after 120 hrs by MTT assay relative to DMSO; format: functional
[12] = biological target: Transcription factor Jun (Homo sapiens) (UniProt P05412); test: Activation of c-Jun expressed in HEK293 cells assessed as induction of protein interaction with Pin1 by EYFP based reporter gene assay; format: cell-based
[13] = biological target: Transcription factor Jun (Homo sapiens) (UniProt P05412); test: Inhibition of c-Jun expressed in HEK293 cells assessed as induction of protein interaction in presence of camptothecin with Pin1 by EYFP based reporter gene assay; format: cell-based
[14] = tested on: PC-3; test: Antiproliferative activity against human PC3 cells at 30 uM after 120 hrs by MTT assay relative to DMSO; format: functional
[15] = biological target: Cyclin-dependent kinase 1 (Homo sapiens) (UniProt P06493); test: Effect on Cdc2 expressed in HEK293 cells assessed as effect on Cdc2:Cdc25C interaction complexes in presence of camptothecin by EYFP and/or YFP Venus fragment based reporter gene assay; format: cell-based
[16] = biological target: Cyclin-dependent kinase 1 (Homo sapiens) (UniProt P06493); test: Inhibition of Cdc2 expressed in HEK293 cells assessed as effect on Cdc2:Cdc25C interaction complexes in presence of camptothecin by EYFP and/or YFP Venus fragment based reporter gene assay; format: cell-based
[17] = biological target: Cyclin-dependent kinase 1 (Homo sapiens) (UniProt P06493); test: Effect on Cdc2 expressed in HEK293 cells assessed as effect on Cdc2:Cdc25A interaction complexes in presence of camptothecin by EYFP and/or YFP Venus fragment based reporter gene assay; format: cell-based
[18] = biological target: Cofilin-1 (Homo sapiens) (UniProt P23528); test: Effect on cofilin1 expressed in HEK293 cells assessed as effect on cofilin1; Limk2 interaction complexes in presence of camptothecin by EYFP and/or YFP Venus fragment based reporter gene assay; format: cell-based
[19] = tested on: HEK293; test: Inhibition of HSP90 expressed in HEK293 cells assessed as effect on Akt1:p27 interaction complexes by EYFP and/or YFP Venus fragment based reporter gene assay; format: cell-based
[20] = tested on: PC-3; test: Antiproliferative activity against human PC3 cells at 2.5 uM after 120 hrs by MTT assay relative to DMSO; format: functional
[21] = tested on: PC-3; test: Antiproliferative activity against human PC3 cells at 50 ug/ml after 120 hrs by MTT assay relative to DMSO; format: functional
[22] = tested on: PC-3; test: Antiproliferative activity against human PC3 cells at 1 uM after 120 hrs by MTT assay relative to DMSO; format: functional
[23] = tested on: PC-3; test: Antiproliferative activity against human PC3 cells at 5 uM after 120 hrs by MTT assay relative to DMSO; format: functional
[24] = tested on: PC-3; test: Antiproliferative activity against human PC3 cells at 12.5 uM after 120 hrs by MTT assay relative to DMSO; format: functional
[25] = tested on: PC-3; test: Antiproliferative activity against human PC3 cells at 200 nM after 120 hrs by MTT assay relative to DMSO; format: functional
[26] = tested on: A549; test: Antiproliferative activity against human A549 cells after 120 hrs by MTT assay; format: functional, cell-based; settings: A549, 120 h
[27] = tested on: PC-3; test: Antiproliferative activity against human PC3 cells after 120 hrs by MTT assay; format: functional, cell-based; settings: PC-3, 120 h
[28] = tested on: MIA PaCa-2; test: Antiproliferative activity against human MIAPaCa2cells after 120 hrs by MTT assay; format: functional, cell-based; settings: MIA PaCa-2, 120 h
[29] = Antiproliferative activity against human U87MG cells after 120 hrs by MTT assay; format: functional, cell-based, U-87MG ATCC; settings: U-87 MG
[30] = tested on: LoVo; test: Antiproliferative activity against human LoVo cells after 120 hrs by MTT assay; format: functional, cell-based
[31] = tested on: PC-3; test: Antiproliferative activity against human PC3 cells at 20 uM after 120 hrs by MTT assay relative to DMSO; format: functional
[32] = tested on: PC-3; test: Antiproliferative activity against human PC3 cells at 3 uM after 120 hrs by MTT assay relative to DMSO; format: functional
[33] = biological target: Cofilin-1 (Homo sapiens) (UniProt P23528); test: Inhibition of cofilin1 expressed in HEK293 cells assessed as effect on cofilin1; Limk2 interaction complexes by EYFP and/or YFP Venus fragment based reporter gene assay; format: cell-based
[34] = tested on: PC-3; test: Antiproliferative activity against human PC3 cells at 10 uM after 120 hrs by MTT assay relative to DMSO; format: functional

Cofilin-1 (Homo sapiens), sequence (P23528 whole entry, the tested form may be a part): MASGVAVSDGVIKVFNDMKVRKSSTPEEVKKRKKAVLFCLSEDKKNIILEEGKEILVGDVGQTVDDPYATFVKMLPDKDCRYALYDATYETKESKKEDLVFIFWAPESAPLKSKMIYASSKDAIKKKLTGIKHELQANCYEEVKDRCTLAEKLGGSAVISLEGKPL
Transcription factor Jun (Homo sapiens), sequence (P05412 whole entry): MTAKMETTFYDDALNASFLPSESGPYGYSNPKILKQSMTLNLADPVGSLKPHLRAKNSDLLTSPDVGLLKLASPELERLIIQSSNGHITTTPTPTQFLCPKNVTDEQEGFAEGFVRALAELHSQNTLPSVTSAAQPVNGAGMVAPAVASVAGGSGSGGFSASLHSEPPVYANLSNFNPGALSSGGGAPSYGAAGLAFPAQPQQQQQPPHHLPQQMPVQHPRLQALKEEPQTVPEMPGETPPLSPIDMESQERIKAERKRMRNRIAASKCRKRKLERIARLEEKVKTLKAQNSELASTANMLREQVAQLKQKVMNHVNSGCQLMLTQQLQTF
Cyclin-dependent kinase 1 (Homo sapiens), sequence (P06493 whole entry, looked up, the tested form may be a part): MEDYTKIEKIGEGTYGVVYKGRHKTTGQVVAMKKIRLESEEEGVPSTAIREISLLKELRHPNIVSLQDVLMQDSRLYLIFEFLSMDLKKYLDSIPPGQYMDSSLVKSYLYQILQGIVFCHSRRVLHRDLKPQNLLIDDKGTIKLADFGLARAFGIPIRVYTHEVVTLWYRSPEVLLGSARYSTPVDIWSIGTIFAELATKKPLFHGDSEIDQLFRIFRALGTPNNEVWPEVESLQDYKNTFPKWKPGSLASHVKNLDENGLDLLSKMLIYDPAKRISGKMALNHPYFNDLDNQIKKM

CC[C@H](C)[C@H](NC(=O)[C@H](Cc1ccc(O)cc1)NC(=O)[C@@H](NC(=O)[C@H](CCCNC(=N)N)NC(=O)[C@@H](N)CC(=O)O)C(C)C)C(=O)N[C@@H](Cc1cnc[nH]1)C(=O)N1CCC[C@H]1C(=O)N[C@@H](Cc1ccccc1)C(=O)O [ANGIOTENSIN II]
fold change (FC) [1]: 1.018

CCCC[C@@H](C=O)NC(=O)[C@H](CC(C)C)NC(=O)[C@H](CC(C)C)NC(C)=O (Ac-Leu-Leu-[Nle]-aldehyde)
inhibition [2]: Active
inhibition [3]: Active
inhibition [4]: Active
fold change (FC) [5]: 0.26
inhibition [6]: Active
Activity [7]: Active
inhibition [8]: Active

CN(CCOc1ccc(CC2SC(=O)NC2=O)cc1)c1ccccn1 (stereo unspecified) [ROSIGLITAZONE]
fold change (FC) [9]: 0.925

CCC(=C/[C@H](C)C/C=C/C(C)=C/[C@@H](C)C(=O)[C@@H](C)[C@H](O)[C@@H](C)C/C(C)=C/C(=O)O)/C=C/[C@@H]1OC(=O)C=C[C@@H]1C [LEPTOMYCIN B]
fold change (FC) [10]: 0.262

N#Cc1ccc(C(c2ccc(C#N)cc2)n2cncn2)cc1 [LETROZOLE]
fold change (FC) [11]: 1.001

CCOC(=O)C(C)(C)Oc1ccc(Cl)cc1 [CLOFIBRATE]
Activity [12]: Active
Activity [13]: Active
fold change (FC) [14]: 1.021
Activity [15]: Active
inhibition [16]: Active
Activity [17]: Active
Activity [18]: Active

COC1=C2C[C@@H](C)C[C@H](OC)[C@H](O)[C@@H](C)/C=C(\C)[C@H](OC(N)=O)[C@@H](OC)/C=C\C=C(/C)C(=O)NC(=CC1=O)C2=O [GELDANAMYCIN]
inhibition [19]: Active
fold change (FC) [20]: 0.261

CC(=O)O[C@H]1C(=O)[C@@]2(C)[C@H]([C@H](OC(=O)c3ccccc3)[C@]3(O)C[C@H](OC(=O)[C@H](O)[C@@H](NC(=O)c4ccccc4)c4ccccc4)C(C)=C1C3(C)C)[C@]1(OC(C)=O)CO[C@@H]1C[C@@H]2O [PACLITAXEL]
fold change (FC) [20]: 0.281

C=C1C[C@@H]2[C@H](CC[C@]3(C)C(=O)CC[C@@H]23)[C@@]2(C)C=CC(=O)C=C12 [EXEMESTANE]
fold change (FC) [11]: 0.975

C[C@H]1CCC/C=C/[C@@H]2C[C@H](O)C[C@H]2[C@H](O)/C=C/C(=O)O1 [BREFELDIN A]
fold change (FC) [21]: 0.245

CC(C)C[C@@H](C=O)NC(=O)[C@H](CC(C)C)NC(=O)[C@H](CC(C)C)NC(=O)OCc1ccccc1 [MG-132] (Cbz-Leu-Leu-Leu-aldehyde)
inhibition [2]: Active
inhibition [3]: Active
fold change (FC) [22]: 0.255
inhibition [4]: Active
inhibition [6]: Active
Activity [7]: Active
inhibition [8]: Active

C=CCNC1=C2C[C@@H](C)C[C@H](OC)[C@H](O)[C@@H](C)/C=C(\C)[C@H](OC(N)=O)[C@@H](OC)/C=C\C=C(/C)C(=O)NC(=CC1=O)C2=O (stereo in doubt) [TANESPIMYCIN]
inhibition [19]: Active
fold change (FC) [23]: 0.264

O=c1c(-c2ccc(O)cc2)coc2cc(O)cc(O)c12 [GENISTEIN]
fold change (FC) [24]: 1.074

Cc1[nH]c(=O)c(C#N)cc1-c1ccncc1 [MILRINONE]
fold change (FC) [25]: 1.015

CC(C)OC(=O)C(C)(C)Oc1ccc(C(=O)c2ccc(Cl)cc2)cc1
Activity [12]: Active
Activity [13]: Active
Activity [15]: Active
inhibition [16]: Active
Activity [17]: Active
Activity [18]: Active

O=C(Nc1ccc([N+](=O)[O-])cc1Cl)c1cc(Cl)ccc1O [NICLOSAMIDE]
IC50 [26]: 400 nM
IC50 [27]: 400 nM
fold change (FC) [22]: 0.408
IC50 [28]: 1100 nM
IC50 [29]: 400 nM
IC50 [30]: 700 nM

C=C(C)[C@H]1Cc2c(ccc3c2O[C@@H]2COc4cc(OC)c(OC)cc4[C@@H]2C3=O)O1 [ROTENONE]
Activity [13]: Active
Activity [15]: Active
fold change (FC) [1]: 0.548
Activity [17]: Active
Activity [18]: Active

COc1cccc(-c2cc(=O)c3ccccc3o2)c1N
fold change (FC) [31]: 0.901

CC1(COc2ccc(CC3SC(=O)NC3=O)cc2)CCCCC1 (stereo unspecified) [CIGLITAZONE]
fold change (FC) [9]: 0.934

CN(CCOc1ccc(C[C@H](Nc2ccccc2C(=O)c2ccccc2)C(=O)O)cc1)c1ccccn1
fold change (FC) [32]: 0.956

CN[C@H]1CC[C@@H](c2ccc(Cl)c(Cl)c2)c2ccccc21 [SERTRALINE]
Activity [13]: Active
Activity [15]: Active
inhibition [33]: Active
fold change (FC) [34]: 0.226
Activity [17]: Active
Activity [18]: Active

COc1cc2ncnc(Nc3cccc(Br)c3)c2cc1OC
fold change (FC) [25]: 0.983
